Measured values published in patent publication US10787413B2, “Derivatives of curcuminoids and use thereof as an anticancer agent” (CHINA MEDICAL UNIVERSITY, priority 2016, dated 2020).
Where two headings read alike, the source gives them in different places.

What was measured:
[1] = tested on: PC3 prostate cancer cell; assay: MTT cell viability assay, PC3 prostate cancer cell; type: cell-based
Procedure: (§1) Cell viability was evaluated by measuring the reduction in MTT to yield blue formazan. Cells were cultured in 96-well plates, allowed to attach overnight, and then treated with compounds. After treatment, MTT solution (1 mg/ml) was added to each well, and plates were incubated for another 4 h. Medium were removed, blue formazan was dissolved in DMSO, and the absorbance was read at 570 nm^20.

[2] = tested on: HCT-116 colon cancer cell; assay: MTT cell viability assay, HCT-116 colon cancer cell; type: cell-based; conditions: Homo sapiens
Procedure: as §1

[3] = tested on: MDA-MB-231 breast cancer cell; assay: MTT cell viability assay, MDA-MB-231 breast cancer cell; type: cell-based, human; conditions: for IC50: Homo sapiens; for times more potent than curcumin (IC50): MDA-MB-231, 72 h treatment, curcumin IC50 16.23 μM
Procedure: Cell viability was evaluated by measuring the reduction in MTT to yield blue formazan. Cells were cultured in 96-well plates, allowed to attach overnight, and then treated with compounds. After treatment, MTT solution (1 mg/ml) was added to each well, and plates were incubated for another 4 h.

[4] = tested on: Doxorubicin-resistant MDA-MB-231; assay: Cell viability, Doxorubicin-resistant MDA-MB-231; type: cell-based
Procedure: as §1

[5] = Preliminary acute toxicity assay; conditions: oral 500 mg/kg/day for 5 consecutive days, 21 days observation, vs untreated control
Procedure: Normal mice were treated with 21a or 35a by oral route at 500 mg/kg/day for 5 consecutive days, following by 21 days of post-treatment observation. […] Detailed data for their toxicology and safety pharmacology studies will be carried out in the near future.
Female nu/nu mice (5 weeks old) were P.O. with vehicle (propylene glycol, 0.1 ml) or high dose of 21a (250 and 500 mg/kg) and 35a (500 mg/kg) for 5 days followed by observation of behavior and lethargy for 21 days.

[6] = tested on: MDA-MB-231 Xenograft; conditions: Doxorubicin alone, IP 1 mg/kg/day
Procedure: Female nu/nu mice (5 weeks old) were from National Laboratory Animal Center, Taipei, Taiwan. […] MDA-MB-231 breast cancer cells (5×10^6 cells per mouse) were suspended in 0.1 ml of Matrigel solution (50% (v/v) Matrigel in PBS) and inoculated into the mammary fat pads of the mice. […] Compounds was administered P.O. once every day for 32 days. Tumor size and mouse body weight were measured once every 4 days, and tumor volume (mm3) was calculated using the equation: length×(width)^2×0.5. At the end of experiments, mice were sacrificed and tumor nodules were dissected and weighed.

[7] = PC-3, treated 24 hours, read-out: IC50 24 hours
[8] = PC-3, treated 48 hours, read-out: IC50 48 hours
[9] = PC-3, treated 72 hours, read-out: IC50 72 hours
[10] = HCT-116, treated 24 hours, read-out: IC50 24 hours
[11] = HCT-116, treated 48 hours, read-out: IC50 48 hours
[12] = HCT-116, treated 72 hours, read-out: IC50 72 hours
[13] = MDA-MB-231, 24 h, MDA-MB-231, treated 24 hours, read-out: IC50 24 hours
[14] = MDA-MB-231, 48 h, MDA-MB-231, treated 48 hours, read-out: IC50 48 hours
[15] = MDA-MB-231, 72 h, MDA-MB-231, treated 72 hours, read-out: IC50 72 hours

SMILES | IC50 [1, 7] [µM] | IC50 [1, 8] [µM] | IC50 [1, 9] [µM] | melting point [°C] | IC50 [2, 10] [µM] | IC50 [2, 11] [µM] | IC50 [2, 12] [µM] | IC50 [3, 13] [µM] | IC50 [3, 14] [µM] | IC50 [3, 15] [µM] | times greater inhibitory activity than curcumin ([4]; Doxorubicin-resistant MDA-MB-231) [times] | IC50 ([4]; Homo sapiens, MDA-MB-231, 24 h, Doxorubicin-resistant MDA-MB-231, treated for 24 h) [µM] | times more potent than curcumin (IC50) [3] | body weight and behavior change [5] | reduction of MDA-MB-231 tumor weight compared with control group [6] [%]
CCC(CO)(CO)C(=O)Oc1ccc(/C=C/C(=O)/C=C(O)/C=C/c2ccc(O)c(OC)c2)cc1OC [Compound 22b, 4-((1E,4Z,6E)-5-Hydroxy-7-(4-hydroxy-3-methoxyphenyl)-3-oxohepta-1,4,6-trien-1-yl)-2-methoxyphenyl 2,2-bis(hydroxymethyl)butanoate] | 13.8 ± 1.48 | 14.4 ± 0.82 | 12.5 ± 0.1 | 82 to 83 | 21.2 ± 2.48 | 12.4 ± 0.16 | 11.4 ± 1.05 | 14.6 ± 2.42 | 7.55 ± 0.86 | 4.66 |  |  |  |  | 
COc1ccc(/C=C/C(O)=C/C(=O)/C=C/c2ccc(OC(=O)C(C)(CO)CO)c(OC)c2)cc1OC [Compound 33, 4-((1E,4Z,6E)-7-(3,4-dimethoxyphenyl)-5-hydroxy-3-oxohepta-1,4,6-triene-1-yl)-2-methoxyphenyl 3-hydroxy-2-(hydroxymethyl)-2-methylpropanoate] | 7.77 ± 0.88 | 7.85 ± 0.81 | 7.64 ± 0.75 | 99 to 101 | 10.5 ± 0.64 | 7.56 ± 0.77 | 4.77 ± 0.24 | 4.69 ± 0.73 | 3.12 ± 0.17 | 2.55 |  |  |  |  | 
COc1cc(/C=C/C(=O)C(C)(C)C(=O)/C=C/c2ccc(OC(=O)C(C)(CO)CO)c(OC)c2)ccc1OC(=O)C(C)(CO)CO [Compound 35a, ((1E,6)-4,4-Dimethyl-3,5-dioxohept-1,6-diene-1,7-diyl)bis(2-methoxy-4,1-phenylene) bis(3-hydroxy-2-(hydroxymethyl)-2-methylpropanoate)] | 3.49 ± 0.4 |  | 1.76 ± 0.14 |  | 6.67 ± 0.43 | 3.35 ± 0.09 | 1.65 ± 0.16 | 5.33 ± 0.69 |  | 1.98 | 10 | 5.7 | 8.2 times | no significant difference | 
CCOc1cc(/C=C/C(=O)/C=C(O)/C=C/c2ccc(OC(=O)C(CC)(CO)CO)c(OCC)c2)ccc1OC(=O)C(CC)(CO)CO [Compound 27, ((1E,3Z,6E)-3-hydroxy-5-oxohepta-1,3,6-triene-1,7-diyl)bis(2-ethoxy-4,1-phenylene) bis(2,2-bis(hydroxymethyl)butanoate)] | 8.18 ± 1.89 | 4.46 ± 0.15 | 3.06 ± 0.29 | 161 to 162 | 3.79 ± 0.03 | 3.18 ± 0.26 | 2.97 ± 0.13 | 8.04 ± 0.17 | 7.43 ± 1.36 | 5.49 ± 0.52 |  |  |  |  | 
CCC(CC)(C(=O)/C=C/c1ccc(OC(=O)C(C)(CO)CO)c(OC)c1)C(=O)/C=C/c1ccc(OC(=O)C(C)(CO)CO)c(OC)c1 [Compound 35b, ((1E,6E)-4,4-Diethyl-3,5-dioxohepta-1,6-diene-1,7-diyl)bis(2-methoxy-4,1-phenylene) bis(3-hydroxy-2-(hydroxymethyl)-2-methylpropanoate)] | 8.7 ± 0.14 | 3.67 ± 0.25 | 2.16 ± 0.12 | 189 to 191 | 7.71 ± 0.03 |  | 1.74 ± 0.02 | 8.64 ± 0.27 |  | 2 ± 0.02 |  |  |  |  | 
C=CCC(CC=C)(C(=O)/C=C/c1ccc(OC(=O)C(C)(CO)CO)c(OC)c1)C(=O)/C=C/c1ccc(OC(=O)C(C)(CO)CO)c(OC)c1 [Compound 35e, ((1E,6E)-4,4-diallyl-3,5-dioxohepta-1,6-diene-1,7-diyl)bis(2-methoxy-4,1-phenylene) bis(3-hydroxy-2-(hydroxymethyl)-2-methylpropanoate)] | 4.24 ± 0.18 | 3.54 ± 0.26 | 2.63 ± 0.77 | 195 to 197 | 2.18 ± 0.22 |  | 0.71 ± 0.01 | 9.02 ± 0.5 |  | 0.71 |  |  |  |  | 
COc1cc(/C=C/C(O)=C/C(=O)/C=C/c2ccc(OC(=O)C(C)(CO)CO)c(OC)c2)ccc1O [Compound 21b, 4-((1E,4Z,6E)-5-Hydroxy-7-(4-hydroxy-3-methoxyphenyl)-3-oxohepta-1,4,6-trien-1-yl)-2 methoxyphenyl 3-hydroxy-2-(hydroxymethyl)-2-methylpropanoate] | 24.6 ± 0.83 | 26.8 ± 0.74 | 17.4 ± 1.37 | 104 to 105 | 35.6 ± 2.5 | 20.4 ± 0.61 | 15.5 ± 0.16 | 13.2 ± 1.2 | 9.97 ± 1.12 | 5.94 |  |  |  |  | 
CC(CO)(CO)C(=O)Oc1ccc(/C=C/C(=O)/C=C(O)/C=C/c2ccc(OC(=O)C(C)(CO)CO)cc2)cc1 [Compound 23a, ((1E,3Z,6E)-3-Hydroxy-5-oxohepta-1,3,6-triene-1,7-diyl)bis(4,1-phenylene) bis(3-hydroxy-2-(hydroxymethyl)-2-methylpropanoate)] | 8.46 ± 0.64 | 8.77 ± 0.8 | 5.59 ± 0.2 | 192 to 194 | 57.4 ± 12.2 | 8.64 ± 0.18 | 4.1 ± 0.06 | 26.7 ± 1.85 | 7.82 ± 0.56 | 6.74 |  |  |  |  | 
CC(CO)(CO)C(=O)Oc1ccc(/C=C/C(=O)/C=C(O)/C=C/c2ccc(O)cc2)cc1 [Compound 23b, 4-((1E,4Z,6E)-5-hydroxy-7-(4-hydroxyphenyl)-3-oxohept-1,4,6-trien-1-yl)phenyl 3-hydroxy-2-(hydroxymethyl)-2-methylpropanoate] | 20.1 ± 2.62 | 11 ± 0.44 | 5.22 ± 0.27 | 206 to 208 | 71.9 ± 7.87 | 11.3 ± 0.72 | 4.78 ± 0.66 | 19.5 ± 1.82 | 5.27 ± 0.57 | 1.33 |  |  | about 12 times |  | 
CCOc1cc(/C=C/C(=O)/C=C(O)/C=C/c2ccc(OC(=O)C(C)(CO)CO)c(OCC)c2)ccc1OC(=O)C(C)(CO)CO [Compound 26, ((1E,3Z,6E)-3-hydroxy-5-oxohepta-1,3,6-triene-1,7-diyl)bis(2-ethoxy-4,1-phenylene) bis(3-hydroxy-2-(hydroxymethyl)-2-methylpropanoate)] | 9.38 ± 0.01 | 9.53 ± 0.36 | 5.36 ± 0.07 | 153 to 155 | 8.33 ± 0.39 | 4.22 ± 0.05 | 3.79 ± 0.1 | 18.43 ± 0.15 | 8.85 ± 0.66 | 6.58 ± 0.81 |  |  |  |  | 
COc1ccc(/C=C/C(=O)CC(=O)/C=C/c2ccc(OC)c(OC(=O)C(C)(CO)CO)c2)cc1OC(=O)C(C)(CO)CO [Compound 24a, ((1E,6E)-3,5-Dioxohepta-1,6-diene-1,7-diyl)bis(2-methoxy-5,1-phenylene) bis(3-hydroxy-2-(hydroxymethyl)-2-methylpropanoate)] | 11.9 ± 1.4 | 6.43 ± 0.26 | 4.74 ± 0.04 | 194 to 196 | 11.4 ± 1.11 | 5.33 ± 0.29 | 2.79 ± 0.15 | 9.22 ± 2.24 | 5.11 ± 0.96 | 4.61 |  |  | about 3.5 times |  | 
COc1cc(/C=C/C(=O)C(CO)(CO)C(=O)/C=C/c2ccc(OC(=O)C(C)(CO)CO)c(OC)c2)ccc1OC(=O)C(C)(CO)CO [Compound 40, ((1E,6E)-4,4-bis(hydroxymethyl)-3,5-dioxohepta-1,6-diene-1,7-diyl)bis(2-methoxy-4-phenylene) bis(3-hydroxy-2-(hydroxymethyl)-2-methylpropanoate)] | > 100 | > 100 | 74.6 ± 2.04 | 234 to 237 | > 100 | 69.1 ± 3.11 | 58.04 ± 0.53 | > 100 | 84.9 ± 1.67 | 57.9 ± 2.73 |  |  |  |  | 
COc1cccc2c1C(=O)c1c(O)c3c(c(O)c1C2=O)C[C@@](O)(C(=O)CO)C[C@@H]3O[C@H]1C[C@H](N)[C@H](O)[C@H](C)O1 [Doxorubicin, reference compound] |  |  |  |  |  |  |  |  |  |  |  |  |  |  | 60
COc1ccc(/C=C/C(=O)CC(=O)/C=C/c2ccc(OC)c(OC(=O)C(C)(CO)CO)c2)cc1O [Compound 24b, 5-((1E,6E)-7-(3-Hydroxy-4-methoxyphenyl)-3,5-dioxohepta-1,6-dien-1-yl)-2-methoxyphenyl 3-hydroxy-2-(hydroxymethyl)-2-methylpropanoate] | 8.37 ± 0.81 | 3.75 ± 0.18 | 2.32 ± 0.05 | 184 to 186 | 7.57 ± 1.02 | 3.84 ± 0.41 | 1.95 ± 0.15 | 7.69 ± 0.82 | 1.99 ± 0.99 | 2.29 |  |  |  |  | 
